Read-outs that look alike come from different tables or passages of the source.

Data set [1] deals with T1, human DDC (Homo sapiens, UniProt P20711).
T1 construct: made in house
T1 sequence (P20711 1-480): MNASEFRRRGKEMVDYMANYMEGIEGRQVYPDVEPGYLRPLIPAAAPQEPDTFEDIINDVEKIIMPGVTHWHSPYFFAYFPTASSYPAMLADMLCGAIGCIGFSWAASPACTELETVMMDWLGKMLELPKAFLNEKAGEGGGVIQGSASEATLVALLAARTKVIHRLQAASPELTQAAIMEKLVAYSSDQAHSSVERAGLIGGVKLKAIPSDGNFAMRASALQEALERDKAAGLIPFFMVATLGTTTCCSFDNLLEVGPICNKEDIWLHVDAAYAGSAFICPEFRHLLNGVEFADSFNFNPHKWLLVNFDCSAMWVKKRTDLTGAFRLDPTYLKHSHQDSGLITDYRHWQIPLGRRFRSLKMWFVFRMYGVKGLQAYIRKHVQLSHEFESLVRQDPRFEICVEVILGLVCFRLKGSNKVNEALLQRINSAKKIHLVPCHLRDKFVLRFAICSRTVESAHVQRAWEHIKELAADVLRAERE
The data set can be described thus: Assay of the inhibitory activity: spectrophotometric measurement of dopamine production by DDC. In kind it is biochemical. Conditions: for IC50: 0.1 mM L-Dopa, pH 7.4, 25°C, 9 concentrations in duplicate, read-out: IC50; for BE (binding efficiency): binding energy per unit of mass, from Ki and molecular weight in kDa; for Inhibition profile: type of inhibition from Lineweaver–Burk plots. On the procedure:
DDC activity was determined by measuring the production of dopamine with a spectrophotometric assay outlined by Sherald et al. and modified by Charteris and John. The reaction was carried out in 0.1 M potassium phosphate buffer pH 7.4 at 25°C for 1 min and stopped by inactivation of the enzyme at 100°C for 90 sec. The inhibitory assay was performed by measuring the decarboxylase activity of DDC with 50 nM enzyme, 0.1 mM L-Dopa, and 10 µM PLP in the presence and in the absence of a fixed amount of each compound. Various amounts of dimethyl sulphoxyde (DMSO) were necessary to solubilize the compounds in 100 mM potassium phosphate buffer, pH 7.4. […] Compounds were evaluated at 9 concentrations, and each in duplicate. IC50 values were derived by nolinear regression analysis. The related inhibition type of the compounds on human DDC was identified from Lineweaver–Burk plots, and Ki and/or Ki′ values for the inhibitors tested were calculated by the software Origin 7.0.

Data set [2] has as its target T1, human DDC. Description: Enzyme-ligand equilibrium dissociation constant from visible CD signal changes of DDC. In kind it is binding. Conditions: change of 420 nm or 335 nm CD band, 100 mM potassium phosphate pH 7.4. On the procedure: The equilibrium dissociation constant for each tested compound from DDC was determined by monitoring the decrease in the 420 nm CD signal of DDC (7 µM) in the presence of various ligand concentrations in 100 mM potassium phosphate buffer, pH 7.4. In any case, the maximun DMSO concentration in the mixture was kept lower than 1% (v/v). The KD values were obtained from the fitting of the data to the equation [drawing 3] where [E]t and [L]t represent the total concentrations of DDC dimer and ligand, respectively, Y refers to the visible CD signal change at 420 nm at the ligand concentration [L], and Ymax refers to the CD signal when all enzyme molecules are complexed with the ligand. CD measurements were performed with a Jasco J-710 spectropolarimeter using quartz cuvettes with 1 cm path length.

The test system of data set [3] is pig kidney DDC. Conditions: cited from earlier work.
On the set-up of data set [4]: method as in PMID 580398. Conditions: animals and humans; cited from earlier work.
[5] abbreviates: 50 nM enzyme, L-Dopa, 10 µM PLP, 0.1 M potassium phosphate pH 7.4, 25°C, from Lineweaver–Burk plots, read-out: Ki.
The mark [6] stands for this setting: Ki, competitive inhibition, Table 4, third screening.

A word on the IC50: it is the concentration needed to halve the response being measured. The Ki is the dissociation constant of the complex between target and ligand, obtained from inhibition or displacement. As a reminder, the Kd is the equilibrium constant for the complex coming apart. `Oc1cccc(/C=N/n2c(S)nnc2-c2ccccc2Cl)c1` [Compound 28]: the IC50 in data set [1] (50 nM enzyme, 10 µM PLP) is 17 ± 1 µM. The Ki in data set [1] (setting [5]) turned out to be 14 ± 1 µM. For the same compound, in data set [1], the “BE (binding efficiency)” value was found to be 14.7 and the Inhibition profile entry is given as “competitive inhibitors”. Binding in data set [2] was characterised by a dissociation constant (Kd) of 21.1 ± 3.5 µM.
For the compound `Oc1ccc(/C=N/n2c(S)nnc2-c2ccc(Cl)cc2Cl)cc1O` [Compound 30], the IC50 in data set [1] (50 nM enzyme, 10 µM PLP) was 29.8 ± 4.8 µM. In addition, the Ki in data set [1] (setting [5]) came out at 12.2 ± 0.4 µM. In data set [1], the “BE (binding efficiency)” value amounted to 12.9 and the Inhibition profile result is given as “competitive inhibitors”. The Kd in data set [2] was found to be 25.1 ± 3.5 µM.
For `Oc1ccccc1/C=N/n1c(S)nnc1-c1ccccc1` [Compound 31], the IC50 in data set [1] (50 nM enzyme, 10 µM PLP) is 83 ± 12 µM. In addition, in data set [1] (setting [5]), the Ki was 33.4 ± 5 µM. In addition, in data set [1], the “BE (binding efficiency)” value is listed as 15.1 and the Inhibition profile result is reported as “competitive inhibitors”. This compound also gave a Kd in data set [2] of 31.7 ± 3.4 µM.
With `Oc1ccc(/C=N/n2c(S)nnc2-c2ccc(F)cc2)cc1O` [Compound 34], in data set [1] (50 nM enzyme, 10 µM PLP), the concentration for half-maximal inhibition (IC50) was 11 ± 0.8 µM. Further, in data set [1] (setting [5]), the Ki came out at 10.4 ± 3.3 µM. Further, in data set [1], the “BE (binding efficiency)” value was found to be 15.8 and the Inhibition profile entry is listed as “competitive inhibitors”. The compound further had an equilibrium dissociation constant (Kd) in data set [2] of 7.1 ± 0.9 µM.
On to `Oc1ccc(/C=N/n2c(S)nnc2-c2ccccc2)cc1O` [Compound 37], for which the IC50 in data set [1] (50 nM enzyme, 10 µM PLP) came to 2.4 ± 0.3 µM. Also, the Ki in data set [1] (setting [5]) was 1.8 ± 1.1 µM. In data set [1], the “BE (binding efficiency)” value was 18.4 and the Inhibition profile entry is listed as “competitive inhibitors”. The same compound came in with a Kd in data set [2] of 1.5 ± 0.2 µM.
Take `Oc1ccc(/C=N/n2cnnc2)cc1O` [Compound 38]: the concentration for half-maximal inhibition (IC50) in data set [1] (50 nM enzyme, 10 µM PLP) amounted to 76 ± 5.8 µM. Also, in data set [1] (setting [6]), the affinity corresponds to a Ki of 24.5 ± 1.4 µM. In addition, the “BE (binding efficiency)” value in data set [1] was 22,6. Besides, binding in data set [2] was characterised by a dissociation constant (Kd) of 24.5 ± 4.4 µM.
In the case of `Cc1nnc(S)n1/N=C/c1ccc(O)c(O)c1` [Compound 39], in data set [1] (50 nM enzyme, 10 µM PLP), the IC50 stood at 27.5 ± 3.3 µM. Moreover, the “BE (binding efficiency)” value in data set [1] is given as 19,9. Moreover, in data set [1] (competitive inhibition, Table 4, third screening, read-out: Ki), the Ki came to 10.8 ± 0.8 µM. Moreover, the Kd in data set [2] stood at 9.1 ± 0.3 µM.
For `Cc1ccccc1-c1nnc(S)n1/N=C/c1ccc(O)c(O)c1` [Compound 41], in data set [1] (50 nM enzyme, 10 µM PLP), the 50% inhibitory concentration (IC50) was determined as 30.1 ± 2.1 µM. In addition, the Ki in data set [1] (setting [6]) turned out to be 9.8 ± 0.5 µM. Moreover, the “BE (binding efficiency)” value in data set [1] is 15,4. In data set [2], this compound came in with a Kd of 6.1 ± 0.5 µM.
Take `Cc1ccc(-c2nnc(S)n2/N=C/c2ccc(O)c(O)c2)cc1` [Compound 42]: the IC50 in data set [1] (50 nM enzyme, 10 µM PLP) was determined as 5.2 ± 0.4 µM. The compound also yielded a Ki in data set [1] (setting [6]) of 2 ± 0.2 µM. Besides, in data set [1], the “BE (binding efficiency)” value was 17,5. Moreover, the Kd in data set [2] was found to be 2.7 ± 0.5 µM.
Taken in the same sequence, the figures for `Cc1cccc(-c2nnc(S)n2/N=C/c2ccc(O)c(O)c2)c1` [Compound 43] were 3.8 ± 0.6 µM, 1.9 ± 0.1 µM, 17,5 and 2.8 ± 0.5 µM.
The corresponding values for `COc1cccc(-c2nnc(S)n2/N=C/c2ccc(O)c(O)c2)c1` [Compound 45] are 6.2 ± 0.3 µM, 2 ± 0.1 µM, 16,7 and 1.5 ± 0.3 µM.
For `NC(CO)C(=O)NNCc1ccc(O)c(O)c1O` (centres unmarked) [benserazide, trihydroxybenzylhydrazine seryl derivative], the “DDC inhibition in words” value in data set [3] is listed as “not a powerful DDC inhibitor”. Further, the “Metabolism before reaching the arterial blood” value in data set [4] is listed as “completely metabolized before it reaches the arterial blood”.
Regarding `C[C@@](Cc1ccc(O)c(O)c1)(NN)C(=O)O` [carbidopa, L-α-methyl-α-hydrazino-3,4-dihydroxyphenylpropionic acid], the “DDC inhibition in words” value in data set [3] was “powerful irreversible DDC inhibitors”.
Regarding `NNCc1ccc(O)c(O)c1O` [trihydroxybenzylhydrazine], the “DDC inhibition in words” value in data set [3] was “powerful irreversible DDC inhibitors”.

The values above are taken from paper PMC3285636, “Identification by Virtual Screening and In Vitro Testing of Human DOPA Decarboxylase Inhibitors” (PLoS ONE, 2012).
